This is an account of results in patent publication US9938257B2 (Sunshine Lake Pharma Co., Ltd., priority 2015, dated 2018).

Data set [1] is described as follows: Compound stability in human liver microsomes. Format: in vitro ADME. Conditions: pH 7.4; for half-life at 5 μM: human liver microsomes 0.5 mg protein/mL, compound 5 μM, NADPH 1.0 mM, 37° C., read-out: Human T1/2; for CLint scaled at 5 μM: human liver microsomes, in vivo CLint extrapolated. The protocol: (§1) Human or rat liver microsomes incubations were conducted in duplicate in polypropylene tubes. The typical incubation mixtures consisted of human or rat liver microsomes (0.5 mg protein/mL), compounds of interest (5 μM) and NADPH (1.0 mM) in a total volume of 200 μL potassium phosphate buffer (PBS, 100 mM, pH 7.4). Compounds were dissolved in DMSO and diluted with PBS such that the final concentration of DMSO was 0.05%. The enzymatic reactions were commenced with the addition of protein after a 3-min preincubation and incubated in a water bath open to the air at 37° C. Reactions were terminated at various time points (0, 5, 10, 15, 30, 60 min) by adding equal volume of ice-cold acetonitrile. The samples were stored at −80° C. until LC/MS/MS assays.
(§2) The concentrations of compounds in the incubation mixtures of human or rat liver microsomes were determined by a LC/MS/MS method. The ranges of the linearity in the concentration range were determined for each tested compounds.
(§3) A parallel incubation was performed using denatured microsomes as the negative control, and reactions were terminated at various time points (0, 15, 60 min) after incubation at 37° C.
(§4) Dextromethorphan (70 μM) was selected as the positive control, and reactions were terminated at various time points (0, 5, 10, 15, 30, 60 min) after incubation at 37° C. Both positive and negative control samples were included in each assay to ensure the integrity of the microsomal incubation system.
(§5) The concentrations of compounds in human or rat liver microsome incubations were plotted as a percentage of the relevant zero time point control for each reaction. The in vivo CLint were extrapolated (ref.: Naritomi, Y.; Terashita, S.; Kimura, S.; Suzuki, A.; Kagayama, A.; and Sugiyama, Y.; Prediction of human hepatic clearance from in vivo animal experiments and in vitro metabolic studies with liver microsomes from animals and humans. Drug Metab. Dispos., 2001, 29: 1316-1324).

Data set [2] in a line: Compound stability in rat liver microsomes. Format: in vitro ADME. Conditions: pH 7.4; for half-life at 5 μM: rat liver microsomes 0.5 mg protein/mL, compound 5 μM, NADPH 1.0 mM, 37° C., read-out: Rat T1/2; for CLint scaled at 5 μM: rat liver microsomes, in vivo CLint extrapolated. The protocol: as §1, §2, §3, §4, §5
A short description of data set [3]: Pharmacokinetics after intravenous and oral administration in rats. The note with it: for Clearance (CL) after iv dosing / AUC(0-t) / half-life / Vd: dose 1 mg/kg, iv dosing; for F: oral bioavailability, iv dose 1 mg/kg; for AUC(0-t) / half-life / Vd: rat, plasma; for Vd: read-out: Vss. Format: in vivo. The protocol: The compounds disclosed herein are assessed in pharmacokinetic studies in mice, rats, dogs or monkeys. The compounds are administered as a water solution, 2% HPMC+1% TWEEN®80 in water solution, 5% DMSO+5% solutol in saline, 4% MC suspension or capsule. For the intravenous administration, the animals are generally given at 0.5, 1 or 2 mg/kg dose. For the oral (p.o.) dosing, mice and rats are generally given 0.5, 1, 5 or 10 mg/kg dose, and dogs and monkeys are generally given 10 mg/kg dose. The blood samples (0.3 mL) are drawn at 0.25, 0.5, 1.0, 2.0, 3.0, 4.0, 6.0, 8.0, 12 and 24 h time points or 0.083, 0.25, 0.5, 1.0, 2.0, 4.0, 6.0, 8.0 and 24 h time points and centrifuged at 3,000 or 4000 rpm for 2 to 10 min. The plasma solutions are collected, and stored at −20° C. or −70° C. until analyzed by LC/MS/MS as described above.

Another data set concerns the target JAK1 (h) (Homo sapiens (Human), UniProt P23458). The data set is described as follows: JAK1 (h) kinase activity assay. Format: biochemical. On the procedure:
(§6) The above assay procedure can be used to determine the IC50 for inhibition and/or the inhibition constant, Ki. The IC50 is defined as the concentration of compound required to reduce the enzyme activity by 50% under the condition of the assay. The IC50 value is estimated by preparing a 10 point curve using a ½ log dilution series (for example, a typical curve may be prepared using the following compound concentrations: 3 μM, 1 μM, 0.3 μM, 0.1 μM, 0.03 μM, 0.01 μM, 0.003 μM, 0.001 μM, 0.0003 μM and 0 μM).
JAK1 (h) is incubated with 20 mM Tris/HCl pH 7.5, 0.2 mM EDTA, 500 μM GEEPLYWSFPAKKK, 10 mM MgAcetate and [γ-^33P-ATP] (specific activity approx. 500 cpm/pmol, concentration as required). The reaction is initiated by the addition of the MgATP mix. After incubation for 40 minutes at room temperature, the reaction is stopped by the addition of 3% phosphoric acid solution. 10 μL of the reaction is then spotted onto a P30 filtermat and washed three times for 5 minutes in 75 mM phosphoric acid and once in methanol prior to drying and scintillation counting.
(§7) The kinase assays described herein were performed at Millipore UK Ltd, Dundee Technology Park, Dundee DD2 1SW, UK.

A further data set concerns the target Aurora-A (h) (Homo sapiens (Human), UniProt O14965). The data set is described as follows: Aurora-A (h) kinase activity assay. Format: biochemical. On the procedure: as §6
Aurora-A (h) is incubated with 8 mM MOPS pH 7.0, 0.2 mM EDTA, 200 μM LRRASLG (Kemptide), 10 mM MgAcetate and [γ-^33P-ATP] (specific activity approx. 500 cpm/pmol, concentration as required). The reaction is initiated by the addition of the MgATP mix. After incubation for 40 minutes at room temperature, the reaction is stopped by the addition of 3% phosphoric acid solution. 10 μL of the reaction is then spotted onto a P30 filtermat and washed three times for 5 minutes in 75 mM phosphoric acid and once in methanol prior to drying and scintillation counting.
as §7

The target of a further data set is Aurora-B (h) (Homo sapiens (Human), UniProt Q96GD4). The data set is described as follows: Aurora-B (h) kinase activity assay. Format: biochemical. On the procedure: as §6
Aurora-B (h) is incubated with 8 mM MOPS pH 7.0, 0.2 mM EDTA, 30 μM AKRRRLSSLRA, 10 mM MgAcetate and [γ-^33PATP] (specific activity approx. 500 cpm/pmol, concentration as required). The reaction is initiated by the addition of the MgATP mix. After incubation for 40 minutes at room temperature, the reaction is stopped by the addition of a 3% phosphoric acid solution. 10 μL of the reaction is then spotted onto a P30 filtermat and washed three times for 5 minutes in 75 mM phosphoric acid and once in methanol prior to drying and scintillation counting.
as §7

Chain of JAK1 (h) (P23458 whole entry): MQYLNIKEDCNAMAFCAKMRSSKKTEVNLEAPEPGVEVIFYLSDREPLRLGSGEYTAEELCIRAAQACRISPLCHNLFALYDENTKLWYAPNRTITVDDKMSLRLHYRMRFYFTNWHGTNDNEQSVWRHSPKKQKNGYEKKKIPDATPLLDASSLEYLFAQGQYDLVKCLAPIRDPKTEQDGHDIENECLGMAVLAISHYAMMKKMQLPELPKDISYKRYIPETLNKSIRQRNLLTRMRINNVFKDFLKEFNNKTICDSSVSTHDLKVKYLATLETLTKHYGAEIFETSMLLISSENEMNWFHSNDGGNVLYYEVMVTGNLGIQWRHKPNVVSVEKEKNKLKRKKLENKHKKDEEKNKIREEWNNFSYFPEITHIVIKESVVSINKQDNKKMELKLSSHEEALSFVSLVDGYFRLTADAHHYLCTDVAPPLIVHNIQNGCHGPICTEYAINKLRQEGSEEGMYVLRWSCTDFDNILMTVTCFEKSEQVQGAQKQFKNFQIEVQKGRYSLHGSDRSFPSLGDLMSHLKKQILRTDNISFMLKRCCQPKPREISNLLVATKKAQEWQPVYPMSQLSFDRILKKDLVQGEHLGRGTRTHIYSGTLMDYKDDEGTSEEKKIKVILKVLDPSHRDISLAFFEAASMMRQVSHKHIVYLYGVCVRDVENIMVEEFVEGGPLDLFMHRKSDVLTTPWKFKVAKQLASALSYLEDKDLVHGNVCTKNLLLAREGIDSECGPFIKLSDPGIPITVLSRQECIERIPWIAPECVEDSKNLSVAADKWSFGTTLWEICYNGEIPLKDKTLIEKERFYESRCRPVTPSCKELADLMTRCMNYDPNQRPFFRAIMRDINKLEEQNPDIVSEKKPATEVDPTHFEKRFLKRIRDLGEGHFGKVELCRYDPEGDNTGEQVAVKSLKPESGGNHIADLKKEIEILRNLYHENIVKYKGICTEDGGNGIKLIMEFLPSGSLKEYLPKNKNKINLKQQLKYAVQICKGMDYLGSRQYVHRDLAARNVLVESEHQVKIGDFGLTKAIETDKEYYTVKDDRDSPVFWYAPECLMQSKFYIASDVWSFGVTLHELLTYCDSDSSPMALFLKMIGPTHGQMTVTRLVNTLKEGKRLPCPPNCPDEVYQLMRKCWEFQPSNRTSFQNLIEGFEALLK
Chain of Aurora-A (h) (O14965 whole entry): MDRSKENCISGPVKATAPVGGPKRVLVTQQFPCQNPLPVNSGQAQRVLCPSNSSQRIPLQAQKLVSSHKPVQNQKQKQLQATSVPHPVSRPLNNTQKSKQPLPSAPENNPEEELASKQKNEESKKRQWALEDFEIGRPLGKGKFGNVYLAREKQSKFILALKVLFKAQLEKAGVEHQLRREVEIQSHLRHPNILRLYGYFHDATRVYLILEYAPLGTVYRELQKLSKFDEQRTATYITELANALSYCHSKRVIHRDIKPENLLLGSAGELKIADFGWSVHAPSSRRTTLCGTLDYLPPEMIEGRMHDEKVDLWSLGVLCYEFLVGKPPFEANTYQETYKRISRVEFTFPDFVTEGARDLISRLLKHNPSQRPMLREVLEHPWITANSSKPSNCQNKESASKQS
Chain of Aurora-B (h) (Q96GD4 whole entry): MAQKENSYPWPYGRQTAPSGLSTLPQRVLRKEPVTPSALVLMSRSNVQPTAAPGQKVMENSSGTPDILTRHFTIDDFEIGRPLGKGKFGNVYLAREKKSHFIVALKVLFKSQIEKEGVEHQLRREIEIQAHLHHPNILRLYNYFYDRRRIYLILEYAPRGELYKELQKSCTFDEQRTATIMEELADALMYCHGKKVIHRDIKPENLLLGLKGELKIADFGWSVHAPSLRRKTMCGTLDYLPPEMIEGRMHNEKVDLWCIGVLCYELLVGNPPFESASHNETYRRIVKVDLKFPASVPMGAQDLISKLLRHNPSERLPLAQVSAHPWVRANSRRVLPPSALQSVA

A word on the CLint scaled: it is the capacity of the preparation to metabolise the compound, expressed as a volume cleared per time. In general, AUC(0-t) refers to the area under the concentration-time curve up to a stated or last time point. The low end stands for low exposure, the high end for high exposure. The term IC50 denotes the midpoint of a concentration-inhibition curve. Higher therefore signals weaker potency. In the case of `CC(=O)N1CC2CC(Nc3nc(Nc4cnn(CC(C)(C)O)c4)ncc3Cl)CC2C1` (centres unmarked) [Ex. 1, 1-(5-((5-chloro-2-((1-(2-hydroxy-2-methylpropyl)-1H-pyrazol-4-yl)amino)pyrimidin-4-yl)amino)hexahydrocyclopenta[c]pyrrol-2(1H)-yl)ethanone], in data set [1], the half-life at 5 μM amounted to 148 min and the CLint scaled at 5 μM was 11.7 mL/min/kg. For the same molecule, in data set [2], the half-life at 5 μM is 112 min and the CLint scaled at 5 μM is 22.2 mL/min/kg. In data set [3], the “Clearance (CL) after iv dosing” value amounted to 46.2 mL/min/kg, the F is on record as 61.7%, the AUC(0-t) was determined as 360 ng·h/mL and the half-life is 38.4 min. In addition, the Vd in data set [3] was 1.53 L/kg. This molecule also had a 50% inhibitory concentration (IC50) on JAK1 (h) of 10 nM. On Aurora-A (h), this molecule came in with an IC50 of 58 nM.

Turning to `CC(C)(O)Cn1cc(Nc2ncc(Cl)c(NC3CC4CN(C(=O)CC#N)CC4C3)n2)cn1` (centres unmarked) [Ex. 2, 3-(5-((5-chloro-2-((1-(2-hydroxy-2-methylpropyl)-1H-pyrazol-4-yl)amino)pyrimidin-4-yl)amino)hexahydrocyclopenta[c]pyrrol-2(1H)-yl)-3-oxopropanenitrile], the results for the half-life at 5 μM in data set [1] and in data set [2] were 106 min and 107 min, respectively. For the same molecule, the CLint scaled at 5 μM was 16.4 mL/min/kg in data set [1] and 23.3 mL/min/kg in data set [2]. In addition, the IC50 worked out at 2 nM on JAK1 (h) and 28 nM against Aurora-A (h).

In the case of `Cn1cc(Nc2ncc(Cl)c(NC3CC4CN(C(=O)CC5CC5)CC4C3)n2)cn1` (centres unmarked) [Ex. 12, 1-(5-((5-chloro-2-((1-methyl-1H-pyrazol-4-yl)amino)pyrimidin-4-yl)amino)hexahydrocyclopenta[c]pyrrol-2(1H)-yl)-2-cyclopropylethanone], in data set [3], the “Clearance (CL) after iv dosing” value came to 60.2 mL/min/kg, the F turned out to be 30.5%, the AUC(0-t) was determined as 278 ng·h/mL and the half-life was 14.4 min. Also, in data set [3], the Vd is 0.99 L/kg. In addition, the midpoint of inhibition against JAK1 (h), the IC50, lay at 12 nM. In addition, at Aurora-A (h), the IC50 amounted to 17 nM.

In the case of `Cn1cc(Nc2ncc(Cl)c(NC3CC4CN(C(=O)C5CC5)CC4C3)n2)cn1` (centres unmarked) [Ex. 14, (5-((5-chloro-2-((1-methyl-1H-pyrazol-4-yl)amino)pyrimidin-4-yl)amino)hexahydrocyclopenta[c]pyrrol-2(1H)-yl)(cyclopropyl)methanone], the half-life at 5 μM was 44.2 min in data set [1] and 3.33 min in data set [2]. The figures for the CLint scaled at 5 μM in data set [1] and in data set [2] were 39.4 mL/min/kg and 745 mL/min/kg, respectively. For the same molecule, the IC50 against JAK1 (h) was 6 nM; at Aurora-A (h) it was 21 nM.

`CC(O)Cn1cc(Nc2ncc(Cl)c(NC3CC4CN(S(=O)(=O)C5CC5)CC4C3)n2)cn1` (centres unmarked) [Ex. 44, 1-(4-((5-chloro-4-((2-(cyclopropylsulfonyl)octahydrocyclopenta[c]pyrrol-5-yl)amino)pyrimidin-2-yl)amino)-1H-pyrazol-1-yl)propan-2-ol]: in data set [3], the “Clearance (CL) after iv dosing” value amounted to 60.8 mL/min/kg, the F is 31.4%, the AUC(0-t) was determined as 276 ng·h/mL and the half-life was 51.6 min. In data set [3], the Vd is 1.75 L/kg. For the same molecule, the IC50 against Aurora-A (h) is 5 nM. On Aurora-B (h), half-maximal inhibition (IC50) required 1 nM.

Turning to `CCNS(=O)(=O)N1CC2CC(Nc3nc(Nc4cnn(CC(C)O)c4)ncc3Cl)CC2C1` (centres unmarked) [Ex. 45, 5-((5-chloro-2-((1-(2-hydroxypropyl)-1H-pyrazol-4-yl)amino)pyrimidin-4-yl)amino)-N-ethylhexahydrocyclopenta[c]pyrrole-2(1H)-sulfonamide], in data set [3], the “Clearance (CL) after iv dosing” value was found to be 62.3 mL/min/kg, the F is 27.1%, the AUC(0-t) was found to be 267 ng·h/mL and the half-life is 39.6 min. Besides, the Vd in data set [3] came out at 1.97 L/kg. Further, the IC50 on Aurora-A (h) was determined as 5 nM. The same molecule had an IC50 on Aurora-B (h) of 0.8 nM.
